Laboratory results reported in patent US20220411422A1, “ERBB RECEPTOR INHIBITORS” (Dizal (Jiangsu) Pharmaceutical Co., Ltd., priority 2018, published 2022).

Tests used:
[1] = test system: Human Pgp/BCRP transporter; assay: Human Pgp/BCRP transporter substrate assessment; type: in vitro ADME
pHER2 = biological target: T1, pHER2 (Homo sapiens, UniProt P04626); assay: pHER2 cellular activity in BT474c1 cell line; type: cell-based; conditions: BT474c1 cell line
T1 construct: pHER2 in cells expressing HER2; endogenous in cells; host or cells: BT474c1
T1 sequence (P04626 23-1255): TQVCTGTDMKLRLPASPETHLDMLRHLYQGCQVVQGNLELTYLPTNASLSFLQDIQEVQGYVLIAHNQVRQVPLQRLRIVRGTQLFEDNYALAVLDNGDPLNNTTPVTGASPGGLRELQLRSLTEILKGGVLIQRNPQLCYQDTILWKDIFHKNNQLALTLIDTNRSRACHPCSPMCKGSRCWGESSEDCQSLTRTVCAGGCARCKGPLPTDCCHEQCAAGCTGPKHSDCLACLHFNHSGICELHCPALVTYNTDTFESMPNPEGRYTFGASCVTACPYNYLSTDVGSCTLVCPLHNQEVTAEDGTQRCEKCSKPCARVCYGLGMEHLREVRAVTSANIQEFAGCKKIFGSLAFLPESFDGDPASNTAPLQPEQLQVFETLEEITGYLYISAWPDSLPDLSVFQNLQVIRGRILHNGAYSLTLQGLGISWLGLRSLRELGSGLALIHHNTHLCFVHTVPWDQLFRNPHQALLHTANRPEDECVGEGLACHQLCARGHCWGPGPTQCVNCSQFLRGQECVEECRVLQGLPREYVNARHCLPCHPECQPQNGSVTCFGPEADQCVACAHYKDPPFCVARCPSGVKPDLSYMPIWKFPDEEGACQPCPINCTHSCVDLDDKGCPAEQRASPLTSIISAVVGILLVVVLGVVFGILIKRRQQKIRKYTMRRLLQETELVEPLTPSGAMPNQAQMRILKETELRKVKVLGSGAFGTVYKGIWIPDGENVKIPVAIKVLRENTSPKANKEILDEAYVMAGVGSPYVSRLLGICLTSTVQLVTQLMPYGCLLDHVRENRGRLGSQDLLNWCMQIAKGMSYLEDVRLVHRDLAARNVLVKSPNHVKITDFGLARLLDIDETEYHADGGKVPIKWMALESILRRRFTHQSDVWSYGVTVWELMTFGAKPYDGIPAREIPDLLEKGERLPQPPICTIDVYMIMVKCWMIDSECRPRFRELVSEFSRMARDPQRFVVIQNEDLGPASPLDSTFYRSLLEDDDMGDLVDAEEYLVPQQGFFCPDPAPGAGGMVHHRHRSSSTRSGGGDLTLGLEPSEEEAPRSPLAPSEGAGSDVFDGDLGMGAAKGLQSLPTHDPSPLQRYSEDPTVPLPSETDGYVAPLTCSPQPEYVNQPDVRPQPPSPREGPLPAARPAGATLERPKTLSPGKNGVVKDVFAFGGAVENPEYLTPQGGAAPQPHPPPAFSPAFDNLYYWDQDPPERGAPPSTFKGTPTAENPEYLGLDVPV
Method: A compound's activity of selective inhibition for HER2 wild type amplification can be evaluated with BT474 cell line (ATCC® HTB-20™). The cell line expressed phosphorylated HER2 protein and its proliferation depended on the amplified gene, which could be used for in vitro PD and anti-proliferation assays.
The compounds' inhibition of target modulation were determined as follows: BT474 cells were sorted in 96 well plates (20000 cells/well) with the DMEM medium containing 10% FBS overnight and then treated with tested compounds at a series of concentrations (3 μM, 0.3 μM, 0.1 μM, 0.03 μM, 0.01 μM, 0.003 μM, 0.001 μM, 0.0001 μM). The plates were incubated for 4 h at 37° C. with 5% CO2 and then the HER2 (Y1248) phosphorylation level of cells in each well were measured with MSD Kit (Phospho-ErbB2 (Tyr1248) Assay Whole Cell Lysate Kit: Cat #K151CLD-3). The assay is a electrochemiluminescent method (MESO SCALE DISCOVERY) for determining both phosphorylated and total HER2 of cells with an MSD SECTOR® Imager and then the ratio of p-HER2/total HER2 can be generated by the machine. The percentage of inhibition was got from formula: % inhibition=100×[1−(ratio of sample well−ratio of Min ctrl well)/(ratio of Max−Ratio of Min ctrl well)]. The IC50 values were further calculated as the compounds concentration required for 50% inhibition in best-fit curves using Prism GraphPad 7.0 or Microsoft Xlfit software.

[2] = Blood brain barrier penetration assay in monkeys; type: in vivo; conditions: CSF, oral; Table 5; monkey
Method: In vitro blood, plasma and brain binding assay was carried out with equilibrium dialysis device. Diluted blood (1:1 with DPBS pH7.4), EDTA-anticoagulated plasma, and brain homogenate (1:3 with DPBS pH7.4) were spiked with 5 μM test compound (in triplicate) and dialyzed against equal volume of 150 μL 100 mM PBS buffer (pH7.4) at 37° C. for appropriate equilibration time in a slowly rotated plate. At the end of incubation, a 50 μL aliquot from the receiver side and a 5 μL from the donor chamber were taken. The 5 μL sample was further diluted with 45 μL of blank blood, plasma or brain homogenate. […] After centrifuging at 4000 rpm for 20 min, supernatant was diluted with 0.1% formic acid aqueous solution and analyzed for LC/MS/MS (API 4000, Applied Biosystems, Foster City). Unbound fraction (fu) of test compound were calculated by the ratio of the buffer side response to the brain homogenate/plasma/blood side response, and unbound fraction (fu,bl, fu,pl and fu,br) of test compound in non-diluted blood and tissue were calculated from measured fu in homogenate and diluted blood with the following equation: fu,bl (fu,br)=(1/D)/[(1/fu−1)+1/D)]. […]
Total brain levels, expressed as brain/blood ratio (Kp,brain) were measured by AUC(brain)/AUC(blood or plasma) in rodents after oral administration. […]
Kp,uu brain and Kp,uu CSF was calculated by the following equation: […]

[3] = Clinical plasma and CSF PK in HER2+ MBC patients; type: in vivo, human; conditions: human, CSF, oral; patients with BM; read-out: averaged Kpuu,CSF
Method: The plasma concentration of Compound 6 at the dosage of 50 to 200 mg following single dose or multiple doses were tested. […] In patients with BM, averaged Kpuu,CSF was around 1.82 and 0.78 for Compound 6 and its active metabolite Compound 16, respectively.

[4] = Blood brain barrier penetration assay in rats (short oral absorption model with blood, plasma and brain binding); type: in vivo; conditions: male, Han Wistar, Table 5, rat
Method: In vitro blood, plasma and brain binding assay was carried out with equilibrium dialysis device. […] At the end of incubation, a 50 μL aliquot from the receiver side and a 5 μL from the donor chamber were taken. The 5 μL sample was further diluted with 45 μL of blank blood, plasma or brain homogenate. Paired samples were matrix-matched with either buffer or blank matrix, and mixed for 2 min, and then precipitated with 150 μL cold acetonitrile with 100 ng/mL tolbutamide as internal standard. After centrifuging at 4000 rpm for 20 min, supernatant was diluted with 0.1% formic acid aqueous solution and analyzed for LC/MS/MS (API 4000, Applied Biosystems, Foster City). […] D is dilution factor. […] A Short oral absorption (SOA) model is an in-vivo screening model to identify brain penetration of a compound. Six male Han Wistar rats purchased from Beijing Vital River were orally dosed with the compound. […] Brain tissue was harvested and homogenized in 3× volume of 100 mM phosphate buffered saline (pH7.4). All samples were stored at ˜−70° C. prior to LC/MS/MS analysis. Standards were prepared by spiking blank plasma, blood, brain homogenate and artificial CSF. […] After 2 min vortex and 5 min centrifugation at 14,000 rpm, supernatant was analyzed by LC/MS/MS (API 4000, Applied Biosystems, Foster City). Two sets of standard curves were run at the beginning and end of each batch from blood sample analysis. For brain and CSF samples, one standard curve was analyzed along with test samples. Total brain levels, expressed as brain/blood ratio (Kp,brain) were measured by AUC(brain)/AUC(blood or plasma) in rodents after oral administration. Similarly, CSF levels represented by a ratio of CSF/blood exposure (Kp,CSF) were determined by AUC(CSF)/AUC(blood or plasma). Free fraction of test compound in biological matrix was determined by in vitro blood and brain binding assay. Kp,uu brain and Kp,uu CSF was calculated by the following equation: Kp,uu brain=AUC(brain)/AUC(blood or plasma)×(fubrain/fublood/plasma) and […] Moreover, the ability of Compounds 6 and 16 to cross BBB was assessed in both rat and monkey by measuring unbound brain-to-plasma partition ratio (Kpuu,brain) and unbound CSF-to-plasma partition ratio (Kpuu,CSF) with the method mentioned above.

wild type EGFR = biological target: T2, wild type EGFR (Homo sapiens, UniProt P00533); assay: pEGFR cellular activity in A431 cell line; type: cell-based
T2 construct: which expresses wild type EGFR protein; endogenous in cells; host or cells: A431
T2 sequence (P00533 25-1210): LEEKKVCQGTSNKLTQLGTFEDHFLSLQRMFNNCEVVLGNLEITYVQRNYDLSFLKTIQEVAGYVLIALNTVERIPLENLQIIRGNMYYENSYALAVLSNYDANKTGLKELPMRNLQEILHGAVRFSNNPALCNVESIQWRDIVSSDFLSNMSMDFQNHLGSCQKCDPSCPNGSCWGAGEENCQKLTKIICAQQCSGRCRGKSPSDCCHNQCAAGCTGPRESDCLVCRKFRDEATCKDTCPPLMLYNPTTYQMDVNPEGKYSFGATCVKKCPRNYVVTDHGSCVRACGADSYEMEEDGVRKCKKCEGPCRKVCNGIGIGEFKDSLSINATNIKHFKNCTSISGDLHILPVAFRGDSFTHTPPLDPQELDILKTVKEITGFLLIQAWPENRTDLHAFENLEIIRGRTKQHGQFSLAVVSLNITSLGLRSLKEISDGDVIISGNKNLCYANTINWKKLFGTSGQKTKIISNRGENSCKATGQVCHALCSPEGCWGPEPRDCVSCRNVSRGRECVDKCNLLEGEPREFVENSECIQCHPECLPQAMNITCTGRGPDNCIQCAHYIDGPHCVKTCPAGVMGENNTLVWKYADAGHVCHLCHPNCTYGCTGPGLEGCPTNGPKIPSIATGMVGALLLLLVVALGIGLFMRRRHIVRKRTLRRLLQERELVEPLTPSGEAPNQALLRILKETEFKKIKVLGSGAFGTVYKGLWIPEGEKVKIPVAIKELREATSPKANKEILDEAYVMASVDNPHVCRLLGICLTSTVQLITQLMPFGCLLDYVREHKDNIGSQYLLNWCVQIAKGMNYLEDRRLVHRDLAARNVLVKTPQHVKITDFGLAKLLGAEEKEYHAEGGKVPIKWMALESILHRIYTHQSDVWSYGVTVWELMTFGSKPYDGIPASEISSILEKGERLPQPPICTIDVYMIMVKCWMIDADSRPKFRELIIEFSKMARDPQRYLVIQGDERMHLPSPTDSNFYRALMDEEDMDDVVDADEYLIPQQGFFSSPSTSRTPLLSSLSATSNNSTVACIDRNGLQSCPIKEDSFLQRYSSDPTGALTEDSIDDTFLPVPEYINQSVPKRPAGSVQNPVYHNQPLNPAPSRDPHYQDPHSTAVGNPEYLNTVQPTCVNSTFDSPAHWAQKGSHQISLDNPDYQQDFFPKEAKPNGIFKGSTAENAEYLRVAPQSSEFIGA
Method: A compound's activity of inhibition for EGFR WT can be evaluated with NCI-H838 (ATCC® CRL-5844™) and A431 cell line (the epidermoid carcinoma cell line A-431), which expresses wild type EGFR protein as the count screening to define the selectivity of the compound.
The compounds' inhibition of target modulation were determined as follows: NCI-H838 cells and A431 cells were sorted in 96 well plates (20000 cells/well) with the DMEM medium containing 1% FBS overnight and then treated with tested compounds at a series of concentrations (3 μM, 0.3 μM, 0.1 μM, 0.03 μM, 0.01 μM, 0.003 μM, 0.001 μM, 0.0001 μM). The plates were incubated for 4 h at 37° C. with 5% CO2 followed by the stimulation of recombinant hEGF (100 ng/ml for 10 Min, RD, Cat #236-EG) and then the EGFR (Y1068) phosphorylation level of cells in each well were measured with MSD Kit (MULTI-SPOT®96 4-Spot HB Prototype EGFR Triplex […]: pEGFR (Tyr1068), pEGFR (Tyr1173), Total EGFR (Cat #N45ZB-1). The assay is a electrochemiluminescent method (MESO SCALE DISCOVERY) for determining both phosphorylated and total EGFR of cells with an MSD SECTOR® Imager and then the ratio of p-EGFR/total EGFR can be generated by the machine. The percentage of inhibition was used the formula: % inhibition=100×[1−(ratio of sample well−ratio of Min ctrl well)/(ratio of Max−Ratio of Min ctrl well)]. […]

EGFR WT = biological target: T3, EGFR WT (Homo sapiens, UniProt P00533); assay: EGFR (Y1068) phosphorylation in NCI-H838 cells, MSD kit; type: cell-based; conditions: pEGFR (Y1068), 4 h then hEGF stimulation
T3 construct: which expresses wild type EGFR protein; endogenous in cells; host or cells: NCI-H838 (ATCC CRL-5844)
T3 sequence (P00533 25-1210): as above

HER2 WT Amplification = biological target: T4, HER2 WT Amplification (Homo sapiens, UniProt P04626); assay: HER2 (Y1248) phosphorylation in BT474 cells, MSD kit; type: cell-based; conditions: pHER2 (Y1248), 4 h
T4 construct: The cell line expressed phosphorylated HER2 protein and its proliferation depended on the amplified gene; endogenous in cells; host or cells: BT474 (ATCC HTB-20)
T4 sequence (P04626 23-1255): as the sequence (P04626 23-1255) above
Method: The plates were incubated for 4 h at 37° C. with 5% CO2 and then the HER2 (Y1248) phosphorylation level of cells in each well were measured with MSD Kit (Phospho-ErbB2 ([…]) Assay Whole Cell Lysate Kit: Cat #[…]-3). The assay is a electrochemiluminescent method (MESO SCALE DISCOVERY) for determining both phosphorylated and total HER2 of cells with an MSD SECTOR® Imager and then the ratio of p-HER2/total HER2 can be generated by the machine.

Compound: CCOc1cc2ncc(C#N)c(Nc3ccc(OCc4ccccn4)c(Cl)c3)c2cc1NC(=O)/C=C/CN(C)C [Neratinib, reference compound]
- Human Pgp/BCRP transporter substrate [1]: Yes

Compound: COc1cc(O[C@H]2CCNCC2(F)F)c2c(Nc3ccc(Oc4ccn5ncnc5c4)c(C)c3)ncnc2c1 [Compound 16, (S)-N-(4-([1,2,4]triazolo[1,5-a]pyridin-7-yloxy)-3-methylphenyl)-5-((3,3-difluoropiperidin-4-yl)oxy)-7-methoxyquinazolin-4-amine]
- IC50 (pHER2): 3.5 nM
- Human Pgp/BCRP transporter substrate [1]: No
- Kp uu [2]: 0.87
- Kp uu [3]: ~0.78
- Kp uu ([4]; CSF, read-out: Kp,uu,CSF): 0.23
- Kp uu ([4]; brain, read-out: Kp,uu,brain): 0.12
- IC50 (wild type EGFR): 740 nM

Compound: Cc1cc(Nc2ncnc3ccc(NC4=NC(C)(C)CO4)cc23)ccc1Oc1ccn2ncnc2c1 [ONT380, reference compound]
- Human Pgp/BCRP transporter substrate [1]: Yes
- Kp uu ([4]; brain, read-out: Kp,uu,brain): 0.016

Compound: Cc1cc(Nc2ncnc3cccc(O[C@@H]4CCN(C)C[C@@H]4F)c23)ccc1Oc1ccn2ccnc2c1 (single isomer, unassigned) [Compound 11]
- IC50 (EGFR WT): > 3000 nM
- IC50 (HER2 WT Amplification): 13.1 nM
